Results on two compounds are retold here after publication PMC8476755 (Frontiers in Chemistry, 2021).

Where a chain is given by its changes, count along the chain named. Like-named read-outs stand apart in the source and are kept apart here.

Experiment in all cases: [3H]GABA uptake assay, transient expression in tsA201 cells
Format in all cases: cell-based

Test [1] deals with T1, BGT1 wt (Homo sapiens, UniProt P48065).
T1 construct: expressed in transfected cells; host or cells: tsA201 (transformed HEK293), transient
T1 sequence (P48065 1-614): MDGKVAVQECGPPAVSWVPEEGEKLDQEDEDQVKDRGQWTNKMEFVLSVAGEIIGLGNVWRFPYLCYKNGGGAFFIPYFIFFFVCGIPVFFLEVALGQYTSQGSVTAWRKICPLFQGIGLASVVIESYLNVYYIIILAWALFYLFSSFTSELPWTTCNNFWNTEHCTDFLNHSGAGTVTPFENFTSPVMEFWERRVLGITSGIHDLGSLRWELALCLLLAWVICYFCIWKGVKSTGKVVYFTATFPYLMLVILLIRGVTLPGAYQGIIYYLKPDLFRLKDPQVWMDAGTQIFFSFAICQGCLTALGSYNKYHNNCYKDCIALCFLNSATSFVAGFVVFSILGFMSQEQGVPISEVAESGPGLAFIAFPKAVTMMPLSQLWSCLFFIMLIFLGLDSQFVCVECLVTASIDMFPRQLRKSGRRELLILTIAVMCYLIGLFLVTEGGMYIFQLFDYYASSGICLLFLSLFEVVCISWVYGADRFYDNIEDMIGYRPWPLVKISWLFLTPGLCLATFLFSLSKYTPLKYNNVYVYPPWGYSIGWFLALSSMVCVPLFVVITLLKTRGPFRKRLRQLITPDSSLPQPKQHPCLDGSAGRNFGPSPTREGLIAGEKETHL
Particulars: for IC50: BGT1 wt, tsA201 cells; for Selectivity ratio for BGT1 over GAT3: [3H]GABA uptake IC50 GAT3 wt / BGT1 wt. An excerpt: (§1) FIGURE 6 (A) Pocket alignment of the orthosteric site of the four GAT subtypes colored according to the default ClustalX color scheme ([Larkin et al., 2007]). The pocket was defined as all corresponding GAT residues (15 in total) that are within a distance of 4.5 Å of the co-crystallized ligand leucine in the homologous LeuT crystal structure (PDB ID 2A65) ([Yamashita et al., 2005]) according to the alignment by Kickinger et al. ([Kickinger et al., 2019]). The mutated residues in BGT1 and the corresponding residues in GAT1-3 are indicated by a red box. The numbering of all residues within the orthosteric pocket can be found in the Supplementary Table S1.
(§2) The tsA201 cell line (a transformed HEK293 cell line), the Flp-In CHO cell lines stably expressing human (h) GATs and the HEK293 cell line stably expressing human α1β2γ2 GABAA receptors have been described previously and were cultured accordingly ([Al-Khawaja et al., 2014]; [Falk-Petersen et al., 2020]). The tsA201 cell line used for transient expression of hGATs was transfected with DNA constructs (8 μg per 10 cm plate) using 40 μL PolyFect transfection reagent according to the manufacturer’s protocol (Qiagen).
(§3) Briefly, cells were seeded in white 96-well plates (White Opaque Tissue Culture (TC) plated 96-well Microplate) pre-coated with PDL. Medium was removed on the following day and cells washed with 100 µL/well assay buffer (HBSS supplemented with 20 mM HEPES, 1 mM CaCl2 and 1 mM MgCl2, pH 7.4). […] The cells were washed 3 times with 100 µL/well ice-cold assay buffer, 150 µL/well MicroScint™20 was subsequently added before the plate was shaken for at least 1 h. The plate was counted in a Packard TopCounter microplate scintillation counter (PerkinElmer) for 3 min per well. […] Data presented is the pooled data of at least three independent experiments with three technical replicates if not stated otherwise in figure legends. Concentration–response curves were fitted by non-linear regression to the sigmoidal concentration-response model with GraphPad Prism (version 9.0.0, GraphPad Software, San Diego, CA, United States) as described ([Lie et al., 2020]).

Test [2] addresses T2, GAT3 wt (Homo sapiens, UniProt P48066).
T2 construct: expressed in transfected cells; host or cells: tsA201 (transformed HEK293), transient
T2 sequence (P48066 1-632): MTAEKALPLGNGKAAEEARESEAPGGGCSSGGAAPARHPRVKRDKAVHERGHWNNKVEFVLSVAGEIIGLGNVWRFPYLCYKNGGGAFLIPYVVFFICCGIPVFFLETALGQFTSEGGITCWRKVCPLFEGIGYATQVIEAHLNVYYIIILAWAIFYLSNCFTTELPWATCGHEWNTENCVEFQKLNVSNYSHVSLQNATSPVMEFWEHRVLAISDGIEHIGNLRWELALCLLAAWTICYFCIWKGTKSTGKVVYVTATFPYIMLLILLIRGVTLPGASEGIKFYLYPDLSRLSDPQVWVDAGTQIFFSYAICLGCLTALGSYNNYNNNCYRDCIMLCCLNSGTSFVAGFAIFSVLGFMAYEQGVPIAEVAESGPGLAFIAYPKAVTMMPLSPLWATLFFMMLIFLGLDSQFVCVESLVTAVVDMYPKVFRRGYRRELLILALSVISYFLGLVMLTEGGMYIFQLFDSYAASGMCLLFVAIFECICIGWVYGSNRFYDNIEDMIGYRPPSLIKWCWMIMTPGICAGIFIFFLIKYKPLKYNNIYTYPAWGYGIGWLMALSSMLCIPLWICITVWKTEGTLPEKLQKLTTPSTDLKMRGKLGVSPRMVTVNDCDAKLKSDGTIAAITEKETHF
Excerpt: as §1, §2, §3

The target of test [3] is T3, BGT1 Q299L (Homo sapiens, UniProt P48065, Q299L).
T3 construct: expressed in transfected cells; host or cells: tsA201 (transformed HEK293), transient
T3 sequence (P48065 1-614 Q299L): T1 sequence (P48065 1-614) with Q299L
The conditions noted are these: for IC50: BGT1 Q299L, tsA201 cells.
Excerpt: The residue Q299 in human BGT1 corresponds to leucine in all other GATs (human, rat, mouse), while E52 corresponds to tyrosine in GAT1 (human, rat, mouse) but is conserved among GAT2, GAT3 and BGT1 (human, rat, mouse) (Figure 6A) ([Kickinger et al., 2019]).
as §1, §2, §3

[4] abbreviates: read-out: pIC50 ± S.E.M. (converted).

Turning to `CN[C@@]12CC[C@H](C(=O)O)[C@@H]1C2` [compound 2], the IC50 in test [1] (30 nM [3H]GABA, read-out: IC50) was 9.8 µM; in test [2] it was 211 µM; in test [3] (read-out: IC50), 59 µM; in test [3] (setting [4]) it was 50.1 µM. The “Selectivity ratio for BGT1 over GAT3” value in test [1] amounted to 22.
With `N[C@@]12CC[C@H](C(=O)O)[C@@H]1C2` [bicyclo-GABA, (1S,2S,5R)-5-aminobicyclo[3.1.0]hexane-2-carboxylic acid], the IC50 in test [1] (30 nM [3H]GABA, read-out: IC50) is 1.5 µM; in test [1] (setting [4]) it was 1.26 µM; in test [2], 610 µM; in test [3] (read-out: IC50), 48 µM. For the same compound, the “Selectivity ratio for BGT1 over GAT3” value in test [1] was found to be 407. Moreover, the “Decrease in inhibitory activity compared to wildtype” value in test [3] (BGT1 Q299L vs BGT1 wt) is reported as 32 times.
